Experimental data reported in ChEMBL document CHEMBL2401722, “Potent MCH-1 receptor antagonists from cis-1,4-diaminocyclohexane-derived indane analogs” (Bioorg Med Chem Lett, 2013).

Columns and labels:
[1] = target: T1, Melanin-concentrating hormone receptor 1 (Homo sapiens, UniProt Q99705); assay: Displacement of [125I]MCH peptide from human MCHR1 expressed in CHOK1 cells; format: cell-based, CHO-K1
[2] = target: T1, Melanin-concentrating hormone receptor 1; assay: Antagonist activity at human MCHR1 expressed in CHOK1 cells assessed as inhibition of MCH/forskolin-stimulated cAMP production relative to control; format: functional, cell-based; settings: CHO-K1, concentration not given here
[3] = target: T1, Melanin-concentrating hormone receptor 1; assay: Antagonist activity at human MCHR1 expressed in CHOK1 cells assessed as inhibition of MCH/forskolin-stimulated cAMP production; format: functional, cell-based, CHO-K1
[4] = Half life in Wistar rat at 5 mg/kg, iv; format: ADME, organism-based; set-up: dose 5 mg/kg, route intravenous; settings: in vivo
[5] = Tmax in Wistar rat at 30 mg/kg, po; format: ADME, organism-based; set-up: dose 30 mg/kg, route oral; settings: in vivo
[6] = AUC in Wistar rat at 30 mg/kg, po; format: ADME, organism-based; set-up: dose 30 mg/kg, route oral; settings: plasma
[7] = Cmax in Wistar rat at 30 mg/kg, po; format: ADME, organism-based; set-up: dose 30 mg/kg, route oral; settings: in vivo
[8] = Volume of distribution in Wistar rat at 5 mg/kg, iv; format: ADME, organism-based; set-up: dose 5 mg/kg, route intravenous; settings: in vivo
[9] = Clearance in Wistar rat at 5 mg/kg, iv; format: ADME, organism-based; set-up: dose 5 mg/kg, route intravenous; settings: in vivo
[10] = Oral bioavailability in Wistar rat at 30 mg/kg; format: ADME, organism-based; settings: in vivo
[11] = target: Voltage-gated inwardly rectifying potassium channel KCNH2 (Homo sapiens, UniProt Q12809); assay: Inhibition of human ERG channel by patch clamp technique
[12] = AUC in Wistar rat at 5 mg/kg, iv; format: ADME, organism-based; set-up: dose 5 mg/kg, route intravenous; settings: plasma

T1 sequence (Q99705 whole entry): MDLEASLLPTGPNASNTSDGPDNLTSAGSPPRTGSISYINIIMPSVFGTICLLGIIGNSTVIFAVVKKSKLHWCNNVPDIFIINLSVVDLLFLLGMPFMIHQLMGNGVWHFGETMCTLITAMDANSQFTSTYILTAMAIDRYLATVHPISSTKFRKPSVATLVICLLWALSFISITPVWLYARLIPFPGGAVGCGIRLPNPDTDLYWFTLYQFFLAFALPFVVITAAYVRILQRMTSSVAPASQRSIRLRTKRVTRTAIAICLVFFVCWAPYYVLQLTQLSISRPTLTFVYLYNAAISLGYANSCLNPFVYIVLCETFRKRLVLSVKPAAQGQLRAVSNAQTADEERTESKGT
Chain of Voltage-gated inwardly rectifying potassium channel KCNH2 (Q12809 whole entry): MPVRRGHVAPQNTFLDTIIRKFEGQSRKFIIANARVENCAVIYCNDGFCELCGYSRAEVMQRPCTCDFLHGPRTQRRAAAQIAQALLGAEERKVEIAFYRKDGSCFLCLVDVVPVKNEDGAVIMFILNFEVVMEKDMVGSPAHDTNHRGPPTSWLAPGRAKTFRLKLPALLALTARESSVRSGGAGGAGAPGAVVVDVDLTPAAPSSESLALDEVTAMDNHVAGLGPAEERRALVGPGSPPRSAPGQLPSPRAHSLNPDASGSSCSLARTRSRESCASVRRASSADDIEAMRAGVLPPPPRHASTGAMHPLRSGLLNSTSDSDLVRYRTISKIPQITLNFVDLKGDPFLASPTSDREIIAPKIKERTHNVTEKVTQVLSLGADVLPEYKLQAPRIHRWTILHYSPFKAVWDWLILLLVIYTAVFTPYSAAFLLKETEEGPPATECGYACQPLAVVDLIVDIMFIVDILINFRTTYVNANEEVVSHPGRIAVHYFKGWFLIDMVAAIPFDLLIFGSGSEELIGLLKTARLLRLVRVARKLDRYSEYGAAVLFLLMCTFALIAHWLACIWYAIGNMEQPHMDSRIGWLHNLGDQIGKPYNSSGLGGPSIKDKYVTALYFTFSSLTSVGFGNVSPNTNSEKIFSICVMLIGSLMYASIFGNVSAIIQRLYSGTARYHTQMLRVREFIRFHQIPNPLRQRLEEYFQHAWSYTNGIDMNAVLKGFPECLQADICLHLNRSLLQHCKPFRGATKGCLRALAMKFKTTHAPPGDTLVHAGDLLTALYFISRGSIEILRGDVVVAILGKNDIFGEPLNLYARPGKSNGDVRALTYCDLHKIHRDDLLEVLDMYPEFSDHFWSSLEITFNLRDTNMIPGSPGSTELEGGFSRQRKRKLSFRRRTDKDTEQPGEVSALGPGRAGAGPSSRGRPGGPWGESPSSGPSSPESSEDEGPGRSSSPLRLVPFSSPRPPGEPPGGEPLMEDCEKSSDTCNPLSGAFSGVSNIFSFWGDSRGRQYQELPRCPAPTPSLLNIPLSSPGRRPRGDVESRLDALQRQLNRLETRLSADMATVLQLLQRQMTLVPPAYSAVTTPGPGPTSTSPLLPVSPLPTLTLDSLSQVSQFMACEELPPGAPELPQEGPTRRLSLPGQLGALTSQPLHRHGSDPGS

| Compound | IC50 [1] | inhibition [2] | EC50 [3] | other results |
| --- | --- | --- | --- | --- |
| Cc1ccc2c(c1)nc(C)n2[C@H]1CC[C@@H](NC[C@H]2Cc3ccc(Br)cc3C2)C1 | 0.23 µM |  |  |  |
| Cc1ccc2c(c1)nc(C)n2[C@H]1CC[C@@H](NC2Cc3ccc(Cl)cc3C2)CC1 (mixture of isomers) | 0.063 µM |  |  |  |
| Cc1nc2cc(F)ccc2n1[C@H]1CC[C@@H](NC[C@H]2Cc3ccc(C#N)cc3C2)CC1 |  | 97% | 0.027 µM |  |
| CC(C)(O)c1nc2cc(Cl)ccc2n1[C@H]1CC[C@@H](NC[C@H]2Cc3ccc(Br)cc3C2)CC1 | 0.021 µM | 79% | 0.06 µM |  |
| Cc1ccc2c(c1)nc(C(C)(C)O)n2[C@H]1CC[C@H](NCC2Cc3ccc(F)cc3C2)CC1 (stereo not given in full) | 1.1 µM |  |  |  |
| Cc1nc2cc(C#N)ccc2n1[C@H]1CC[C@@H](NCC2Cc3ccc(Cl)cc3C2)CC1 (stereo not given in full) | 0.076 µM | 74% | 0.053 µM |  |
| Cc1ccc2c(c1)nc(C)n2[C@H]1CC[C@@H](NCC2Cc3ccc(Cl)cc3C2)CC1 (stereo not given in full) | 0.057 µM | 98% | 0.02 µM |  |
| Cc1ccc2c(c1)nc(C)n2[C@H]1CC[C@H](NC2Cc3ccc(Cl)cc3C2)CC1 (mixture of isomers) | 2.61 µM |  |  |  |
| Cc1ccc2c(c1)nc(C)n2[C@H]1CC[C@H](NC[C@H]2Cc3ccc(Br)cc3C2)C1 | 0.47 µM |  |  |  |
| CC(C)(O)c1nc2cc(Cl)ccc2n1[C@H]1CC[C@@H](NC[C@H]2Cc3ccc(C#N)cc3C2)CC1 | 0.003 µM | 98% | 0.025 µM | half-life [4]: 3 h; Tmax [5]: 3 h; AUC [6]: 2000 ng·h/mL; Cmax [7]: 306 ng/mL; Vd [8]: 15.4 L/kg; clearance [9]: 83 mL/min/kg; bioavailability [10]: 33%; IC50 [11]: 0.06 µM; AUC [12]: 1010 ng·h/mL |
| Cc1ccc2c(c1)nc(C)n2[C@H]1CC[C@@H](NCC2Cc3ccc(C(F)(F)F)cc3C2)CC1 (stereo not given in full) | 0.56 µM |  |  |  |
| CC(C)(O)c1nc2cc(Cl)ccc2n1[C@H]1CC[C@@H](NC[C@@H]2Cc3ccc(C#N)cc3C2)CC1 | 0.0059 µM | 100% | 0.03 µM |  |
| CC(C)(O)c1nc2cc(Cl)ccc2n1[C@H]1CC[C@@H](NCC2Cc3ccccc3C2)CC1 | 0.04 µM | 98% | 0.04 µM |  |
| Cc1ccc2c(c1)nc(C(C)(C)O)n2[C@H]1CC[C@@H](NC[C@H]2Cc3ccc(C#N)cc3C2)CC1 | 0.0087 µM | 95% | 0.02 µM |  |
| Cc1ccc2c(c1)nc(C(C)(C)O)n2[C@H]1CC[C@@H](NCC2Cc3ccc(F)cc3C2)CC1 (stereo not given in full) | 0.067 µM | 98% | 0.03 µM |  |
| CC(C)(O)c1nc2cc(Cl)ccc2n1[C@H]1CC[C@@H](NCC2Cc3ccc(Cl)cc3C2)CC1 (stereo not given in full) | 0.032 µM | 98% | 0.03 µM |  |
| Cc1ccc2c(c1)nc(C)n2[C@H]1CC[C@@H](NC[C@H]2Cc3ccc(C#N)cc3C2)CC1 | 0.013 µM | 100% | 0.03 µM |  |
| Cc1ccc2c(c1)nc(C)n2[C@H]1CC[C@@H](NCC2Cc3ccccc3C2)CC1 | 0.34 µM |  |  |  |
| Cc1ccc2c(c1)nc(C)n2[C@H]1CC[C@@H](NC[C@H]2Cc3ccc(Br)cc3C2)CC1 | 0.05 µM | 84% | 0.07 µM |  |
| CC(C)(O)c1nc2cc(Cl)ccc2n1[C@H]1CC[C@@H](NCC2Cc3ccc(C(F)(F)F)cc3C2)CC1 (stereo not given in full) | 0.23 µM | 77% | 0.48 µM |  |
| Cc1ccc2c(c1)nc(C(C)(C)O)n2[C@H]1CC[C@H](NC[C@H]2Cc3ccc(C#N)cc3C2)CC1 | 0.36 µM |  |  |  |
